Data published in publication PMC3392440 (2012).

Legend:
TlpB [1] = molecular target: TlpB (Helicobacter pylori, UniProt B6JPK4, Y137F); experiment: colorimetric assay of co-purified urea; format: binding
[2] = molecular target: TlpB periplasmic domain, residues 33-211 (TlpBpp), H. pylori strain SS1 (Helicobacter pylori strain SS1); experiment: crystal structure
TlpB [3] = molecular target: TlpB (Helicobacter pylori, UniProt B6JPK4); experiment: crystal structure; format: binding

Molecule: NC(N)=O [urea]
- % bound urea (TlpB [1]): 11 % bound urea

Molecule: TlpB periplasmic domain, residues 33-211 (TlpBpp), H. pylori strain SS1 (domain or fragment)
- stoichiometry N [2]: 2

Molecule: CC(N)=O [acetamide]
- crystal structure (1.40 Å); CD thermal melt (TlpB [3]): TlpBpp with acetamide bound is 3UB7
